From paper PMC6530997, “Asymmetry in catalysis by Thermotoga maritima membrane-bound pyrophosphatase demonstrated by a nonphosphorus allosteric inhibitor” (Science Advances, 2019)
Where two headings read alike, the source gives them in different places.

Columns and labels:
[1] = target: T1, TmPPase (Thermotoga maritima, UniProt Q9S5X0); assay: TmPPase activity inhibition, molybdenum blue 96-well plate assay; format: biochemical; conditions: for IC50: purified TmPPase in DDM, 71°C, 2 min; for activity against TmPPase (in words): SAR discussion; for fold less active / weaker than ATC: IC50 relative to ATC
T1 construct: His; made in house; host or cells: Saccharomyces cerevisiae strain BJ1991
Text: The screening process that led to the discovery of compound 1 (ATC) will be described in more detail elsewhere. Briefly, we tested compounds using a recently developed 96-well plate assay with TmPPase as a model system ([37]). The screening collections included compounds synthesized in our laboratories. The identification of ATC as an inhibitor was followed by the test of analogs 2 to 5. ATC and its analogs were initially developed for their antimicrobial, antiviral, and anticancer activities, as reported elsewhere ([38]).
(§1) TmPPase activity, compound screening, and kinetic experiments were done using the molybdenum blue reaction method in a purified protein solubilized in DDM ([37]). Initial reaction rates of TmPPase were determined using PPi as the substrate and ATC as the inhibitor at varying concentrations. The concentration of MgCl2 and Na4PPi required to maintain 5 mM free Mg^2+ at pH 8.0 was approximated as described previously ([41]). The reaction was done in reaction buffer [60 mM tris-HCl (pH 8.0), 5 mM free Mg^2+, 100 mM KCl, and 10 mM NaCl] at 71°C for 2 min. We chose a 2-min reaction time as it still produces a reaction product in a linear range (fig. S7).

[2] = target: T1, TmPPase; assay: Kinetic analysis of ATC inhibition of PPi hydrolysis by TmPPase; format: biochemical
Method: As ATC is a potent inhibitor, we further characterized its effect on the rate of substrate (PPi) hydrolysis using a range of ATC concentrations (0.0 to 12.0 μM). We performed the kinetic assay using PPi concentrations from 0 to 1714 μM at 71°C with a single-point measurement at 2 min (Fig. 4D), having shown that this is within the linear range for initial rates (fig. S7).
The model is a variant on that used by Artukka et al. ([23]) and is required as there is half-of-the-sites reactivity. The sum of squares when fitting the inhibition curves with an ATC monomer (i.e., n = 1 in Fig. 5) is 5268, and the SD of the residuals (Sy.x) is 4.3; when fitting an ATC dimer, the values are 855 and 1.8, respectively. […] This means that ATC binds as a dimer to TmPPase.
as §1
For analysis, we used a variant of Artukka and co-workers’ method ([23]), which assumes that the two active sites in an mPPase dimer interact allosterically, with the addition of inhibitor binding to the two active sites (Fig. 5). E2 represents the dimeric enzyme, S is the substrate (Na4PPi), I is the inhibitor (ATC), and n is the number of ATC molecules bound to the enzyme. KS is a microscopic Michaelis-Menten constant, and kp is the per-site maximum rate for the substrate complex. α is the factor relating the binding of the first substrate molecule (KS) to the binding of the second, β is the factor relating the rate of hydrolysis of the E2S complex (kp) to that of the E2S2 complex, and KI1obs, KI2obs, and KI3obs are the observed inhibition constants for binding to the E2, E2S, and E2S2 complexes.
For the mechanism in Fig. 5 with n = 2 (i.e., only inhibitor dimers bind), the rate Eq. 1 ([42]) is v=(2kp+2βkp[S]/αKs)/2(1+[I]^2/(KI2obs)^2)+(Ks/[S])(1+[I]^2/(KI1obs)^2)+([S]/αKs)(1+[I]^2/(KI3obs)^2) (1) where [S] and [I] correspond to substrate and inhibitor concentrations, respectively, and the equilibrium and Michaelis-type constants are as in Fig. 5. The kinetic data were fit together to obtain all parameter values and their SEs by nonlinear regression as a function of inhibitor (0, 1.0, 2.0, 4.0, 8.0, and 12.0 μM) and substrate (0 to 1714 μM) concentrations using Prism 6.0 (GraphPad Software). Eliminating the KI1 terms had no effect on the overall quality of fit.

[3] = target: PfPPase-VP1 (in membrane) (Plasmodium falciparum, UniProt Q8IKR1); assay: Inhibition of PfPPase-VP1 in isolated membranes; format: biochemical
Text: (§2) Fig. S6. Effect of ATC on growth of P. falciparum and on PfPPase. (A) Inhibition effect of ATC on PfPPase-VP1 (in membrane) from P. falciparum expressed in insect cell baculovirus expression system (method and further analysis will be described in more detail elsewhere). ATC […]
(§3) (B) ATC has no anti-plasmodial […]
(§4) activity up to 100  µM. (C) Anti-plasmodial activity of artemisinin, as a positive control.
(§5) (1 picture or pasted object on this page, not shown here)

[4] = system: PfPPase-VP1 (in membrane); assay: Inhibition of PfPPase-VP1 in isolated membranes; format: biochemical; conditions: PfPPase IC50 versus TmPPase IC50
Text: as §2, §3, §4, §5

[5] = system: Plasmodium falciparum strain 3D7; assay: Anti-plasmodial activity assay (SYBR Green I, 72 h); format: cell-based
Method: Size-exclusion chromatography – Multi angle laser light scattering (SEC-MALLS) 50  µg of TmPPase purified in DDM with IDP (1 mM) and IDP+ATC (1 mM each) were run through a Superdex 200 10/300 GL equilibrated with a buffer containing 50 mM MES-NaOH pH 6.5, 50 mM KCl, 5 mM MgCl2, 2 mM DTT and 0.05% DDM using a HPLC-system (Shimadzu).
The eluted samples from the column were analysed using UV-absorbance, refractive index (Optilab rEX, Wyatt) and multi angle laser light scattering (miniDAWN TREOS, Wyatt) detectors and the enzyme molecular mass was calculated using ASTRA software (Wyatt).
Anti-plasmodial activity assay
For the in vitro anti-plasmodial activity assay, Plasmodium falciparum strain 3D7 was maintained in culture as described previously (56). Briefly, parasites were cultured in O+ human erythrocytes at 5% haematocrit in RPMI-1640 medium supplemented with 0.5% Albumax II (Gibco, Carlsbad, CA, USA), 200 μM hypoxanthine (Sigma, St. Louis, MO, USA) and 20 μg ml-1 gentamycin (Gibco). […]
Fifty microliters of each dilution were mixed in a 96-well plate with 150 µl of 2% haematocrit of 0.5% parasitemia (ring stage). After 72 h incubation at 37 °C, the parasite growth was quantified using fluorescent SYBR Green I®-based assay as described (58). The half-maximal inhibitory concentration (IC50) of the test compound was assessed by non-linear regression in Prism 7 (GraphPad Software). […]

[6] = target: T1, TmPPase; assay: Kinetic analysis of ATC inhibition of PPi hydrolysis by TmPPase; format: biochemical; conditions: PPi conc. 1721
[7] = PfPPase-VP1 expressed in insect cell baculovirus system

Sequence of PfPPase-VP1 (in membrane) (Plasmodium falciparum, UniProt Q8IKR1) (Q8IKR1 entry or part of it): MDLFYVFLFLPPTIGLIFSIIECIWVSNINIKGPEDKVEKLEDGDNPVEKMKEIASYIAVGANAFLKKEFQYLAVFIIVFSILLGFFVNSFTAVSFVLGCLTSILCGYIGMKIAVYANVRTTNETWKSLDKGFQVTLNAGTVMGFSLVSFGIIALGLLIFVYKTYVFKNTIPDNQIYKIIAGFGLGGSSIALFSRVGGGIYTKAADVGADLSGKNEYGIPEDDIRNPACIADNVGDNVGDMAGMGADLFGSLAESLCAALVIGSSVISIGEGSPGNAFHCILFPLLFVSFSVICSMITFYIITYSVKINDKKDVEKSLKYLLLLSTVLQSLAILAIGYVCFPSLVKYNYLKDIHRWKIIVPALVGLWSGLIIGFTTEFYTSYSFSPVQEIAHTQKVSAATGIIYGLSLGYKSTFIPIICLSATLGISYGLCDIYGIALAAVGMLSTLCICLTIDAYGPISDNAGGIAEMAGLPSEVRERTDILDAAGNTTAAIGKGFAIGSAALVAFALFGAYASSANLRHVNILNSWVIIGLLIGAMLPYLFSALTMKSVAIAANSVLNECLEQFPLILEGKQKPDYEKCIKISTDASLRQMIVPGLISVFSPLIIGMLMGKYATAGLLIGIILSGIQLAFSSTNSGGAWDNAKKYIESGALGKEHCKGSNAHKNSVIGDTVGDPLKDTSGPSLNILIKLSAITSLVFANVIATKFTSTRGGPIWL
T1 sequence (Q9S5X0 whole entry): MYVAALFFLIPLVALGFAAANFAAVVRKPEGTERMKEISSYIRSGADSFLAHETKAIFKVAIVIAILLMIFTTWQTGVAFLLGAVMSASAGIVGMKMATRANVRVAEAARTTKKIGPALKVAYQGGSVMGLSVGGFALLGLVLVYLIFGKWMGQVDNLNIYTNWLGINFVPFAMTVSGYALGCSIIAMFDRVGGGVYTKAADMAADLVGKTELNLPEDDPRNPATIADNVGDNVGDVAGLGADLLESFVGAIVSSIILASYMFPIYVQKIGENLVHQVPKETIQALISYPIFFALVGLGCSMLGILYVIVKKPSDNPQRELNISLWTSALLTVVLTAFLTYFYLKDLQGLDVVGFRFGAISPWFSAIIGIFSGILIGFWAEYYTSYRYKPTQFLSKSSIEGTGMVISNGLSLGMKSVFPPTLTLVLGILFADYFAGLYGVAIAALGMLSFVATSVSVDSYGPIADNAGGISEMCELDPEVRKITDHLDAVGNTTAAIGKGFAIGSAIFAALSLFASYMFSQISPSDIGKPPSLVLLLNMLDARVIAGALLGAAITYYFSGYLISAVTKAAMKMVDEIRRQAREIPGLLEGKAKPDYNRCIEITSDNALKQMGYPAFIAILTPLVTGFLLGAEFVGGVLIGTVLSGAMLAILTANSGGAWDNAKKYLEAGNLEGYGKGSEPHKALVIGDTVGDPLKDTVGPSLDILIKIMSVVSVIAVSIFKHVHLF

For `Nc1nc2ccc(CNC(=O)c3cc4ccccc4[nH]3)cc2s1` [ATC, N-[(2-amino-6-benzothiazolyl)methyl]-1H-indole-2-carboxamide], the IC50 [1] was 1.7 µM, the mode of inhibition [2] was “uncompetitive dimeric inhibitor” and the “fold weaker binding to E2S2 than to E2S” value ([2]; KI3obs versus KI2obs) was “about 2.5 fold”. For the same compound, the Hill constant ([2]; PPi conc. 35) was 2.8, the Hill constant ([2]; PPi conc. 71) was 2.8 and the Hill constant ([2]; PPi conc. 142) was 1.9. It also gave a Hill constant ([2]; PPi conc. 1071) of 2.2, a Hill constant ([2]; PPi conc. 1428) of 1.9 and a Hill constant ([2]; PPi conc. not printed (line between 142 and 1071)) of 2.2. For the same compound, the Ki ([2]; binding to E2 (no substrate), data not shown, read-out: KI1 (mean value when included in the fit)) was at least 250 µM, the “binding to E2 (in words)” value ([2]; enzyme without substrate) was “does not bind to E2 at concentrations we are able to achieve” and the Ki ([2]; observed inhibition constant for binding to the E2S2 complex, n = 2 (ATC dimer), read-out: KI3obs) was 3.18 ± 0.15 µM. For the same compound, the Ki ([2]; observed inhibition constant for binding to the E2S complex, n = 2 (ATC dimer), read-out: KI2obs) was 1.37 ± 0.09 µM, the “Hill coefficient for ATC binding” value ([2]; substrate concentrations greater than 100 μM) was 2 and the Hill coefficient ([2]; very low substrate concentrations (below 100 μM)) was 3. It also gave an IC50 [3, 7] of 83.6 µM, a logIC50 [3, 7] of 1.9 and an IC50 ([3]; isolated P. falciparum membranes, preliminary studies) of about 80 µM. The “fold lower than in T. maritima test system” value [4] was “at least 40 fold”, the “anti-plasmodial activity (in words)” value ([5]; P. falciparum survival assays) was “did not show any anti-plasmodial activity” and the IC50 ([5]; Plasmodium falciparum, P. falciparum 3D7, 72 h, read-out: anti-plasmodial activity, highest concentration without activity) was over 100 µM. It also gave a Hill constant [6] of 2.0.

In the case of `Nc1nc2ccc(CNC(=O)c3ccccc3)cc2s1` [compound 2], the “activity against TmPPase (in words)” value [1] is reported as “inactive” and the IC50 [1] is reported as over 500 µM.

For `Nc1nc2ccc(CNC(=O)c3cccs3)cc2s1` [compound 3], the “activity against TmPPase (in words)” value [1] was “inactive” and the IC50 [1] was over 500 µM.

`Nc1nc2ccc(CNC(=O)c3ccco3)cc2s1` [compound 4] was tested, and the “fold less active / weaker than ATC” value [1] was “approximately 10 fold”.

In the case of `Nc1nc2ccc(CNC(=O)c3ccc[nH]3)cc2s1` [compound 5], the “fold less active / weaker than ATC” value [1] is reported as “approximately 10 fold”.

With `Nc1nc2ccc(CNC(=O)c3cc4cccc(Br)c4[nH]3)cc2s1` [compound 6] the IC50 [1] was 21.4 µM.

In the case of `Nc1nc2ccc(CNC(=O)c3nc4ccccc4[nH]3)cc2s1` [compound 9], the “activity against TmPPase (in words)” value [1] is reported as “fully inactive” and the IC50 [1] is reported as over 500 µM.
